The target of this assay is T1, mTOR (Homo sapiens, UniProt P42345).
T1 construct: FLAG; made in house
Put plainly: In Vitro mTOR Kinase Assay (Echo), Test (a)(ii). The format is biochemical. The note with it: table of enzyme assay Test (a)(ii); read-out: Test (a)(ii) IC50. An outline of the steps: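 FLAG-tagged truncated mTOR (residues 1362-2549), expressed in HEK293 and purified via the FLAG tag, phosphorylated a biotinylated peptide over 2 hours at room temperature. EDTA stopped the reaction. Phospho-T389 was detected overnight by AlphaScreen using the p70 S6K T389 antibody with Protein A/streptavidin beads; IC50 reported.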

T1 sequence (P42345 1362-2549): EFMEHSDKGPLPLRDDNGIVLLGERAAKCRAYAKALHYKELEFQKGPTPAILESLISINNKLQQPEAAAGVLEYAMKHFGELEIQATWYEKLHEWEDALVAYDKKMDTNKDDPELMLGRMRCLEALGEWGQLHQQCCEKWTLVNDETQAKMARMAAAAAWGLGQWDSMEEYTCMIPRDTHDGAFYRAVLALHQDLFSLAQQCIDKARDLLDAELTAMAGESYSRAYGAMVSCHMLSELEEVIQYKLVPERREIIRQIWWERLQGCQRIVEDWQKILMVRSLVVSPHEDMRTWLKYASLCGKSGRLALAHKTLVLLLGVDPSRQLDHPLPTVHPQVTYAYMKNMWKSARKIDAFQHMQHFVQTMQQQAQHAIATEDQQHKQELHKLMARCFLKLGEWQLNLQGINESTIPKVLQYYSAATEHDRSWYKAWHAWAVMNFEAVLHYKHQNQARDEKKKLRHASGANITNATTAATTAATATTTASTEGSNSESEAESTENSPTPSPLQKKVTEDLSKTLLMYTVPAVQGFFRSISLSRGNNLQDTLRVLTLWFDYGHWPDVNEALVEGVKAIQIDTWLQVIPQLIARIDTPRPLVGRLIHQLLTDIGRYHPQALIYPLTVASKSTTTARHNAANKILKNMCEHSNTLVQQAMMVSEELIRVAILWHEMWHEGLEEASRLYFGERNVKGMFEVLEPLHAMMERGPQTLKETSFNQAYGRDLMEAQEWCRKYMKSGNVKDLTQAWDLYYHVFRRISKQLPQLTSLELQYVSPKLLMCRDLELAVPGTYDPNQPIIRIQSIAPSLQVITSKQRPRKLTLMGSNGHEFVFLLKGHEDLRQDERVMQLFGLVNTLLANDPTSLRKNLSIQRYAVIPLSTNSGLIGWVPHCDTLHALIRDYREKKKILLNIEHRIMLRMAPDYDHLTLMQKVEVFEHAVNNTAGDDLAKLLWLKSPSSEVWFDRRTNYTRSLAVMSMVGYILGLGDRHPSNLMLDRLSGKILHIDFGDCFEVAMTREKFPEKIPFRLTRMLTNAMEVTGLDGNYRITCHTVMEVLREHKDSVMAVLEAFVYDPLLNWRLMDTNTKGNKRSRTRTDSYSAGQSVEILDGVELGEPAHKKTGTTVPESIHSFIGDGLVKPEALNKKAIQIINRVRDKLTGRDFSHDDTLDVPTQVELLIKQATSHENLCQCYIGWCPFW

In the case of `CNC(=O)Nc1ccc(-c2nc(N3CCOC[C@@H]3C)cc(C3(S(=O)(=O)c4ccc(C)cc4)CC3)n2)cc1` [Example 95l, 3-methyl-1-[4-[4-[(3S)-3-methylmorpholin-4-yl]-6-[1-(4-methylphenyl)sulfonylcyclopropyl]pyrimidin-2-yl]phenyl]urea], the IC50 (usually the concentration needed to halve the response being measured) was determined as 1.09 nM. Under `Cc1ccc(S(=O)(=O)C2(c3cc(N4CCOC[C@@H]4C)nc(-c4ccc(NC(=O)NC5CC5)cc4)n3)CC2)cc1` [Example 95m, 3-cyclopropyl-1-[4-[4-[(3S)-3-methylmorpholin-4-yl]-6-[1-(4-methylphenyl)sulfonylcyclopropyl]pyrimidin-2-yl]phenyl]urea] stands 2.02 nM; under `Cc1ccc(S(=O)(=O)C2(c3cc(N4CCOC[C@@H]4C)nc(-c4ccc(NC(=O)NCCO)cc4)n3)CC2)cc1` [Example 95n, 3-(2-hydroxyethyl)-1-[4-[4-[(3S)-3-methylmorpholin-4-yl]-6-[1-(4-methylphenyl)sulfonylcyclopropyl]pyrimidin-2-yl]phenyl]urea], 0.668 nM; under `Cc1ccc(S(=O)(=O)C2(c3cc(N4CCOC[C@@H]4C)nc(-c4ccc(NC(=O)NCCF)cc4)n3)CC2)cc1` [Example 95o, 3-(2-fluoro-ethyl)-1-[4-[4-[(3S)-3-methylmorpholin-4-yl]-6-[1-(4-methylphenyl)sulfonylcyclopropyl]pyrimidin-2-yl]phenyl]urea], 4.73 nM. With `Cc1ccc(S(=O)(=O)C2(c3cc(N4CCOC[C@@H]4C)nc(-c4ccc(NC(=O)NCC(F)F)cc4)n3)CC2)cc1` [Example 95p, 3-(2,2-difluoroethyl)-1-[4-[4-[(3S)-3-methylmorpholin-4-yl]-6-[1-(4-methylphenyl)sulfonylcyclopropyl]pyrimidin-2-yl]phenyl]urea], the IC50 stood at 5.43 nM. Take `CCNC(=O)Nc1ccc(-c2nc(N3CCOC[C@@H]3C)cc(C3(S(=O)(=O)c4ccc(C)cc4)CC3)n2)cc1` [Example 95q, 1-ethyl-3-[4-[4-[(3S)-3-methylmorpholin-4-yl]-6-[1-(4-methylphenyl)sulfonylcyclopropyl]pyrimidin-2-yl]phenyl]urea]: the IC50 was found to be 1.68 nM. As to `Cc1ccc(S(=O)(=O)C2(c3cc(N4CCOC[C@@H]4C)nc(-c4ccc(NC(=O)Nc5cnn(C)c5)cc4)n3)CC2)cc1` [Example 95r, 1-[4-[4-[(3S)-3-methylmorpholin-4-yl]-6-[1-(4-methylphenyl)sulfonylcyclopropyl]pyrimidin-2-yl]phenyl]-3-(1-methylpyrazol-4-yl)urea], the IC50 was 6.31 nM.

Consider `C[C@H]1COCCN1c1cc(C2(S(=O)(=O)CCCOC(F)F)CC2)nc(-c2ccc(NC(=O)NCCF)cc2)n1` [Example 96a, 1-[4-[4-[1-[3-(difluoromethoxy)propylsulfonyl]cyclopropyl]-6-[(3S)-3-methylmorpholin-4-yl]pyrimidin-2-yl]phenyl]-3-(2-fluoroethyl)urea], for which the IC50 worked out at 17.7 nM. Turning to `C[C@H]1COCCN1c1cc(C2(S(=O)(=O)CCCOC(F)F)CC2)nc(-c2ccc(NC(=O)NCC(F)F)cc2)n1` [Example 96b, 3-(2,2-difluoroethyl)-1-[4-[4-[1-[3-(difluoromethoxy)propylsulfonyl]cycloproyl]-6-[(3S)-3-methylmorpholin-4-yl]pyrimidin-2-yl]phenyl]urea], the IC50 turned out to be 26.8 nM. Take `CCNC(=O)Nc1ccc(-c2nc(N3CCOC[C@@H]3C)cc(C3(S(=O)(=O)CCCOC(F)F)CC3)n2)cc1` [Example 96c, 1-[4-[4-[1-[3-(difluoromethoxy)propylsulfonyl]cyclopropyl]-6-[(3S)-3-methylmorpholin-4-yl]pyrimidin-2-yl]phenyl]-3-ethylurea]: the IC50 was found to be 27.2 nM.

With `C[C@H]1COCCN1c1cc(C2(S(=O)(=O)CCCOC(F)F)CC2)nc(-c2ccc(NC(=O)Nc3cnn(C)c3)cc2)n1` [Example 96d, 1-[4-[4-[1-[3-(difluoromethoxy)propylsulfonyl]cyclopropyl]-6-[(3S)-3-methylmorpholin-4-yl]pyrimidin-2-yl]phenyl]-3-(1-methylpyrazol-4-yl)urea], the IC50 is 20.9 nM. For `C[C@H]1COCCN1c1cc(C2(S(=O)(=O)CCCOC(F)F)CC2)nc(-c2ccc(NC(=O)NC3CC3)cc2)n1` [Example 96e, 3-cyclopropyl-1-[4-[4-[1-[3-(difluoromethoxy)propylsulfonyl]cyclopropyl]-6-[(3S)-3-methylmorpholin-4-yl]pyrimidin-2-yl]phenyl]urea], the IC50 stood at 8.62 nM. `CNCCS(=O)(=O)C1(c2cc(N3CCOCC3)nc(-c3ccc(NC(=O)NC)cc3)n2)CC1` [Example 97, 3-Methyl-1-[4-[4-[1-(2-methylaminoethylsulfonyl)cyclopropyl]-6-morpholin-4-ylpyrimidin-2-yl]phenyl]urea]: the IC50 was 88.2 nM. Under `Cc1csc(S(=O)(=O)C2(c3cc(N4CCOC[C@@H]4C)nc(-c4ccc(NC(=O)NC(C)(C)CO)cc4)n3)CCC2)n1` [Example 98a, 3-(1-hydroxy-2-methylpropan-2-yl)-1-[4-[4-[(3S)-3-methylmorpholin-4-yl]-6-[1-[(4-methyl-1,3-thiazol-2-yl)sulfonyl]cyclobutyl]pyrimidin-2-yl]phenyl]urea] stands 11 nM; under `Cc1csc(S(=O)(=O)C2(c3cc(N4CCOC[C@@H]4C)nc(-c4ccc(NC(=O)N[C@@H](C)CO)cc4)n3)CCC2)n1` [Example 98b, 3-[(2S)-1-hydroxypropan-2-yl]-1-[4-[4-[(3S)-3-methylmorpholin-4-yl]-6-[1-[(4-methyl-1,3-thiazol-2-yl)sulfonyl]cyclobutyl]pyrimidin-2-yl]phenyl]urea], 4.13 nM; under `Cc1csc(S(=O)(=O)C2(c3cc(N4CCOC[C@@H]4C)nc(-c4ccc(NC(=O)NCc5ncc[nH]5)cc4)n3)CCC2)n1` [Example 98c, 3-(1H-imidazol-2-ylmethyl)-1-[4-[4-[(3S)-3-methylmorpholin-4-yl]-6-[1-[(4-methyl-1,3-thiazol-2-yl)sulfonyl]cyclobutyl]pyrimidin-2-yl]phenyl]urea], 26.7 nM. For `Cc1csc(S(=O)(=O)C2(c3cc(N4CCOC[C@@H]4C)nc(-c4ccc(NC(=O)NCCCO)cc4)n3)CCC2)n1` [Example 98d, 3-(3-hydroxypropyl)-1-[4-[4-[(3S)-3-methylmorpholin-4-yl]-6-[1-[(4-methyl-1,3-thiazol-2-yl)sulfonyl]cyclobutyl]pyrimidin-2-yl]phenyl]urea], the IC50 turned out to be 4.41 nM. Under `Cc1csc(S(=O)(=O)C2(c3cc(N4CCOC[C@@H]4C)nc(-c4ccc(NC(=O)NCCO)cc4)n3)CCC2)n1` [Example 98e, 3-(2-hydroxyethyl)-1-[4-[4-[(3S)-3-methylmorpholin-4-yl]-6-[1-[(4-methyl-1,3-thiazol-2-yl)sulfonyl]cyclobutyl]pyrimidin-2-yl]phenyl]urea] stands 3.35 nM; under `Cc1csc(S(=O)(=O)C2(c3cc(N4CCOC[C@@H]4C)nc(-c4ccc(NC(=O)N[C@H](C)CO)cc4)n3)CCC2)n1` [Example 98f, 3-[(2R)-1-hydroxypropan-2-yl]-1-[4-[4-[(3S)-3-methylmorpholin-4-yl]-6-[1-[(4-methyl-1,3-thiazol-2-yl)sulfonyl]cyclobutyl]pyrimidin-2-yl]phenyl]urea], 2.29 nM. As to `C[C@H]1COCCN1c1cc(C2(S(=O)(=O)c3nccs3)CCC2)nc(-c2ccc(NC(=O)NC(C)(C)CO)cc2)n1` [Example 98g, 3-(1-hydroxy-2-methylpropan-2-yl)-1-[4-[4-[(3S)-3-methylmorpholin-4-yl]-6-[1-(1,3-thiazol-2-ylsulfonyl)cyclobutyl]pyrimidin-2-yl]phenyl]urea], the IC50 was determined as 12.7 nM.

(Values after patent US20090018134A1, “Compounds - 945” (AstraZeneca AB, priority 2007, published 2009).)
